# Legend:
# HDAC3 = target: T1, HDAC3 (Homo sapiens, UniProt O15379); assay: Off-target screen HDAC3; type: biochemical; settings: 10 µM; single point, duplicates
# T1 construct: purchased Eurofins CEREP SA
# Histamine H1 receptor = target: T2, Histamine H1 receptor (Homo sapiens, UniProt P35367); assay: Off-target screen Histamine H1; type: binding; settings: 10 µM; single point, duplicates
# T2 construct: purchased Eurofins CEREP SA
# ML3R = assay: Off-target screen ML3R; settings: 10 µM; single point, duplicates
# PPARγ = target: T3, PPARγ (Homo sapiens, UniProt P37231); assay: Off-target screen PPARγ, antagonist mode; type: cell-based; settings: 10 µM, single point, duplicates
# T3 construct: purchased Eurofins CEREP SA
# T3 sequence (P37231 whole entry): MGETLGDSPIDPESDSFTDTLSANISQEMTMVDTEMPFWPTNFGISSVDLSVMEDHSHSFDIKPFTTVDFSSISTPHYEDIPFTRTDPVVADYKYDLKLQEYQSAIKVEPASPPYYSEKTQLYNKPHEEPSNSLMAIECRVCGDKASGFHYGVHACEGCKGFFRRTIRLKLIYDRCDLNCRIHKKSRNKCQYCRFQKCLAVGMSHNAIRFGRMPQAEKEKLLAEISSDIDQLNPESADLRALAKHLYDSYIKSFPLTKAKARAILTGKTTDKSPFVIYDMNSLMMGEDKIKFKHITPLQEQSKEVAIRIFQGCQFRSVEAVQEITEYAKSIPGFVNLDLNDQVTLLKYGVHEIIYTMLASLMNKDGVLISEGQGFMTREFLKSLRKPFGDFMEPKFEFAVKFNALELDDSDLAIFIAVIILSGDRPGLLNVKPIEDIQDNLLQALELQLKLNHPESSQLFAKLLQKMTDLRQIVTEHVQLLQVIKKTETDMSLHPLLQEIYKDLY
# S1P3 = target: T4, S1P3 (Homo sapiens, UniProt Q99500); assay: Off-target screen S1P3, agonist mode; type: cell-based; settings: 10 µM, single point, duplicates
# T4 construct: purchased Eurofins CEREP SA
# T4 sequence (Q99500 whole entry): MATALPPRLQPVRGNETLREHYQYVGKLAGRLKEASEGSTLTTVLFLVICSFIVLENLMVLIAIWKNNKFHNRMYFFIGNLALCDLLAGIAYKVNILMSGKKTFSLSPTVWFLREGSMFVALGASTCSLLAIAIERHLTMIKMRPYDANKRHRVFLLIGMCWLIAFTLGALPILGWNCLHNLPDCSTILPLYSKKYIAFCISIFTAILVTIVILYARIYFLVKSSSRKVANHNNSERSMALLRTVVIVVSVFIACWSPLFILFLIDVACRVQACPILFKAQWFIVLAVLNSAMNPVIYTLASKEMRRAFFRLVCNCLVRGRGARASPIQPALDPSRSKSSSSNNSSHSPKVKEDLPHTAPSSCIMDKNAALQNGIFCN
# [1] = In vitro microsomal stability, human; type: in vitro ADME; settings: human microsomes, 1 µM; value of 10 = low clearance, essentially below detection limit
# Method: Incubations of a test compound at a concentration of 1 µM with microsomes (0.5 mg/ml) from the appropriate species (human, mouse, or rat) plus cofactor NADPH were performed in 96-well plates at 37°C on a TECAN automated liquid handling system (Tecan Group Ltd., Männedorf, Switzerland). After pre-incubation of the test compound with the microsomes for 10 min, the enzymatic reaction was started by the addition of cofactors. Aliquots of the incubations are removed at 1, 3, 6, 9, 15, 25, 35, and 45 min and are then quenched with 1:3 (v/v) acetonitrile containing internal standards. Samples were then cooled and centrifuged before analysis of the supernatant by LC-MS/MS. Logarithmic Peak area ratios (test compound peak area/internal standard peak area) were plotted against incubation time and a linear fit made to the data with emphasis upon the initial rate of compound disappearance. The slope of the fit was then used to calculate the intrinsic clearance: Clint (µL/min/mg protein) = −slope (min-1) * 1,000/[protein concentration (mg/ml)].
# plasma ATX = plasma ATX (Rattus norvegicus, UniProt Q64610); assay: in vivo
# Method: Plasma samples were collected in triplicates at 0, 1, 3, 6, and 24 h and were added to heparinated tubes and kept at 0°C until further processing. Sampling and immediate processing at 0°C is crucial for the measurements of basal levels, since at higher temperatures, LPA is produced rapidly according to the ATX activity in the sample. […] The other 2 aliquots were used to determine ATX activity by incubation of the sample at 37°C for 4 h, followed again by analysis of LPA levels in the same way as for the basal LPA levels.
# For all doses (3, 10, and 30 mg/kg po), 5 animals/group were used. […] Values are mean ± SD.
# To better observe the modulation of the individual LPA species, a second set of plasma samples was incubated at 37°C for 2 h prior to LC/MS analysis.
# mu opioid receptor = target: T5, mu opioid receptor (Homo sapiens, UniProt P35372); assay: Off-target screen mu opioid receptor; type: binding; settings: 10 µM; single point, duplicates
# T5 construct: purchased Eurofins CEREP SA
# T5 sequence (P35372 whole entry): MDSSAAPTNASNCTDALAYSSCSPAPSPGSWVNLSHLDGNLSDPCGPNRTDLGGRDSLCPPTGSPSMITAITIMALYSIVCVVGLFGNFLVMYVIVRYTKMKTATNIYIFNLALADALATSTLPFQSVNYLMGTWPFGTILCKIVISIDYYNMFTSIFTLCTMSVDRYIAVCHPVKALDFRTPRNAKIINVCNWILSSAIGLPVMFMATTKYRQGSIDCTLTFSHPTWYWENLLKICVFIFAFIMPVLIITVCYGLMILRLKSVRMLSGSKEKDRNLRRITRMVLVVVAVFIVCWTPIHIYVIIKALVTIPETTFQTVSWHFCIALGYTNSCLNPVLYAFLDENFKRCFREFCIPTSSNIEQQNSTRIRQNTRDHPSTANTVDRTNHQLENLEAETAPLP
# GSK-3A = target: T6, GSK-3A (Homo sapiens, UniProt P49840); assay: Off-target screen GSK-3A; type: biochemical; settings: 10 µM; single point, duplicates
# T6 construct: purchased Eurofins CEREP SA
# T6 sequence (P49840 whole entry): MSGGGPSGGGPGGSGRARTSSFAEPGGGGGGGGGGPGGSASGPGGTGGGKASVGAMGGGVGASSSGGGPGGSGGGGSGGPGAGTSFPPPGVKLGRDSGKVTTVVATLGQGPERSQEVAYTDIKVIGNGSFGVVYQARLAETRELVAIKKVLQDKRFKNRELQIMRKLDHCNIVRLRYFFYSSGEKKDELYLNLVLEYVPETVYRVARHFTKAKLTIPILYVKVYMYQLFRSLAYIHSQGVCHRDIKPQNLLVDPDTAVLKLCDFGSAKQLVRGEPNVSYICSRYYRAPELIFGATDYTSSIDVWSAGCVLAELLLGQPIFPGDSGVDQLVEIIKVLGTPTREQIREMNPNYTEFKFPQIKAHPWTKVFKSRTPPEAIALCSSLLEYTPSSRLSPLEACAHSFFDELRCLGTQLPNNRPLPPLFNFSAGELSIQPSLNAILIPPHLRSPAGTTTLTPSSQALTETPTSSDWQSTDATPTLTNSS
# 5HT2B = target: T7, 5HT2B (Homo sapiens, UniProt P41595); assay: Off-target screen 5HT2B; type: binding; settings: 10 µM; single point, duplicates
# T7 construct: purchased Eurofins CEREP SA
# T7 sequence (P41595 whole entry): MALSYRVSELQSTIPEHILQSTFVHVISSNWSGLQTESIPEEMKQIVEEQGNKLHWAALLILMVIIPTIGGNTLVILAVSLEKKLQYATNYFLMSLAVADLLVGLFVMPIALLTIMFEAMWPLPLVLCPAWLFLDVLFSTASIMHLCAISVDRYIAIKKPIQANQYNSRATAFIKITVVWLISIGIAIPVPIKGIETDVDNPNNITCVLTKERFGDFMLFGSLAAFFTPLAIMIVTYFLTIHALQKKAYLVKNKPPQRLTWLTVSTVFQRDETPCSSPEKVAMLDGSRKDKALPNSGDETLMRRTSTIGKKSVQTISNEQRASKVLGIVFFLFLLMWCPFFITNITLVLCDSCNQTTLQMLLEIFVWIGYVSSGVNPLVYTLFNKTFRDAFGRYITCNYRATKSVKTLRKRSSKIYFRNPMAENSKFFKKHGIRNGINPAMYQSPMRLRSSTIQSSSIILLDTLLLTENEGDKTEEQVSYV
# MMP-1 = target: T8, MMP-1 (Homo sapiens, UniProt P03956); assay: Off-target screen MMP-1; type: biochemical; settings: 10 µM; single point, duplicates
# T8 construct: purchased Eurofins CEREP SA
# T8 sequence (P03956 100-469): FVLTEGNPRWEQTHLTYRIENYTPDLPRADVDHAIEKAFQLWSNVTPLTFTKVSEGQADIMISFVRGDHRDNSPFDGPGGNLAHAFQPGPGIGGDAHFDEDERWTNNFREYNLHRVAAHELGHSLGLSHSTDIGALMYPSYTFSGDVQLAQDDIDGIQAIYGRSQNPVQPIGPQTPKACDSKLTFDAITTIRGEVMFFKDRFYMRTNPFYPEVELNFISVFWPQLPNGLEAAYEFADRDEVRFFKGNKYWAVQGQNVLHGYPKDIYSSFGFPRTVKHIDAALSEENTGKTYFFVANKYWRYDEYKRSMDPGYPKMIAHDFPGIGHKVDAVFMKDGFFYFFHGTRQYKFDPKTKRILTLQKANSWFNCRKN
# HDAC6 = target: T9, HDAC6 (Homo sapiens, UniProt Q9UBN7); assay: Off-target screen HDAC6; type: biochemical; settings: 10 µM; single point, duplicates
# T9 construct: purchased Eurofins CEREP SA
# 5HT3 = target: T10, 5HT3 (Homo sapiens, UniProt P46098); assay: Off-target screen 5HT3; type: binding; settings: 10 µM; single point, duplicates
# T10 construct: purchased Eurofins CEREP SA
# T10 sequence (P46098 24-478): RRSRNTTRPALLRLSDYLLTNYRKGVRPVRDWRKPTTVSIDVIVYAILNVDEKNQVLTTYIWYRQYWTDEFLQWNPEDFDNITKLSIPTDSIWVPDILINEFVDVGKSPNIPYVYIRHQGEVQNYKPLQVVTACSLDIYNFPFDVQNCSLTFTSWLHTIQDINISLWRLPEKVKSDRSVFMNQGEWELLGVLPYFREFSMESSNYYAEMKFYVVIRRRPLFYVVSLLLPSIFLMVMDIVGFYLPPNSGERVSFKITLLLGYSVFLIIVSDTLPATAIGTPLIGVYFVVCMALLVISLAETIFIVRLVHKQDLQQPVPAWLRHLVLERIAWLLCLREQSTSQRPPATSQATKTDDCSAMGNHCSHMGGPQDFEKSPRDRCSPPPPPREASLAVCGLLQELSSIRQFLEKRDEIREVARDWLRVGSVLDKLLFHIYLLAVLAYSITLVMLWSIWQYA
# Muscarinic receptor M2 = target: T11, Muscarinic receptor M2 (Homo sapiens, UniProt P08172); assay: Off-target screen Muscarinic M2; type: binding; settings: 10 µM; single point, duplicates
# T11 construct: purchased Eurofins CEREP SA
# LPA3 receptor = target: T12, LPA3 receptor (Homo sapiens, UniProt Q9UBY5); assay: Off-target screen LPA3 receptor, agonist mode; type: cell-based; settings: 10 µM, single point, duplicates
# T12 construct: purchased Eurofins CEREP SA
# T12 sequence (Q9UBY5 whole entry): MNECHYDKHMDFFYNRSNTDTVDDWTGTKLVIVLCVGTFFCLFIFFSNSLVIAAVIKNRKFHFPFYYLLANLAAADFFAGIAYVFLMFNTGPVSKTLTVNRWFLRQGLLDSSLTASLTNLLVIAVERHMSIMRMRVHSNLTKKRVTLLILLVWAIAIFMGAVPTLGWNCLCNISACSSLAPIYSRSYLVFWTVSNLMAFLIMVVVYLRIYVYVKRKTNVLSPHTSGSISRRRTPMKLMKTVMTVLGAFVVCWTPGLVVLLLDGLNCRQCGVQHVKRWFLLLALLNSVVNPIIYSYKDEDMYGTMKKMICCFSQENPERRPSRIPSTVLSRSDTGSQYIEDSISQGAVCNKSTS
# GSK-3B = target: T13, GSK-3B (Homo sapiens, UniProt P49841); assay: Off-target screen GSK-3B; type: biochemical; settings: 10 µM; single point, duplicates
# T13 construct: purchased Eurofins CEREP SA
# T13 sequence (P49841 whole entry): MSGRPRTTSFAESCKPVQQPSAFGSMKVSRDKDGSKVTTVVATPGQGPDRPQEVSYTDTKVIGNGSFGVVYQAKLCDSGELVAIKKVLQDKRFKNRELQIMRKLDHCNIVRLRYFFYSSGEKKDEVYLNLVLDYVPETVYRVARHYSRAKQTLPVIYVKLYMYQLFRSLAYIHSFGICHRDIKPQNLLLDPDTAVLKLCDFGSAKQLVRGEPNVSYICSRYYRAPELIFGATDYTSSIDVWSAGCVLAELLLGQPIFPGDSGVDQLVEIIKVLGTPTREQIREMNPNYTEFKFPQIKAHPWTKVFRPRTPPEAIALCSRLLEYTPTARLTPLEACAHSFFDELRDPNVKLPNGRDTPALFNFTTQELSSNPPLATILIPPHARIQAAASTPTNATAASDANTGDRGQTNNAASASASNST
# T2 sequence (P35367 whole entry): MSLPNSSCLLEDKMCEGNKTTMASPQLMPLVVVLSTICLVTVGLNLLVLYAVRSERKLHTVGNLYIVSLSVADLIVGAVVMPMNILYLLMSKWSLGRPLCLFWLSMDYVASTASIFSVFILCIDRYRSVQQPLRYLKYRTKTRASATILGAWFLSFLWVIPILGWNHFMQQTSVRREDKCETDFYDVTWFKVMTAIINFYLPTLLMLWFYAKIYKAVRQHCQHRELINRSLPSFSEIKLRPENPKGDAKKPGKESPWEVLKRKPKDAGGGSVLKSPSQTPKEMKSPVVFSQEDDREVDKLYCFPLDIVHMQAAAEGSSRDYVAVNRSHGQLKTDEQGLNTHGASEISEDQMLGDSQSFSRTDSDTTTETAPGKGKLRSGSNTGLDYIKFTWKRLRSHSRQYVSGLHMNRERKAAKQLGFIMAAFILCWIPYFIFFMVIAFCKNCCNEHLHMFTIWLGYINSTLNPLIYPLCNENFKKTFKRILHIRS
# T1 sequence (O15379 whole entry): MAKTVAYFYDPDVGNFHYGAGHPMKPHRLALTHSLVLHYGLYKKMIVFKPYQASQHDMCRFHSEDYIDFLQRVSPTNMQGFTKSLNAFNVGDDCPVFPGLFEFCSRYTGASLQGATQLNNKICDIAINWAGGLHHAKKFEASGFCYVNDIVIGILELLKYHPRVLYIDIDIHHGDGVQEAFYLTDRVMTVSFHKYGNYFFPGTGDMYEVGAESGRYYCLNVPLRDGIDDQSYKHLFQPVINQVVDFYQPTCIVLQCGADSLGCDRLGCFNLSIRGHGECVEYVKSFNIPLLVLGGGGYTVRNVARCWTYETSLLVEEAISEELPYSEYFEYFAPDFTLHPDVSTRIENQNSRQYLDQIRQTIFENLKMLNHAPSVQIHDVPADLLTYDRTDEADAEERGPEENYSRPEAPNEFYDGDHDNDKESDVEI
# T1 sequence (Q9Y618 395-489 partner limits assumed): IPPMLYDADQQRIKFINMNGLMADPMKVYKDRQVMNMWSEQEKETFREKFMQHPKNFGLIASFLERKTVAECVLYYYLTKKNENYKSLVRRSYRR
smiles,measurement,setting,value
"O=C(OCc1ccc(OC(F)(F)F)cc1)N1C[C@@H]2CN(C(=O)c3ccc4[nH]nnc4c3)C[C@H]2C1 [Compound 13, (3aS,6aS)-5-(1H-Benzotriazole-5-carbonyl)-hexahydro-pyrrolo[3,4-c]pyrrole-2-carboxylic acid 4-trifluoromethoxy-benzyl ester]",HDAC3 (h) [% inhib],HDAC3,1 % inhib
same,Histamine H1 receptor (h) [% inhib],Histamine H1 receptor,5 % inhib
same,ML3R (h) [% inhib],ML3R,48 % inhib
same,"PPARγ (h), antago. mode [% inhib]",PPARγ,6 % inhib
same,"S1P3 (h), agonist mode [% pos ctrl]",S1P3,8 % pos ctrl
same,Mic CL h,[1],10/10/10 µL/m/mg prot
same,IC50,plasma ATX,~1.47 nM
same,mu opioid receptor (h) [% inhib],mu opioid receptor,15 % inhib
same,GSK-3A (h) [% inhib],GSK-3A,-11 % inhib
same,5HT2B (h) [% inhib],5HT2B,-3 % inhib
same,MMP-1 (h) [% inhib],MMP-1,-9 % inhib
same,HDAC6 (h) [% inhib],HDAC6,-14 % inhib
same,5HT3 (h) [% inhib],5HT3,-2 % inhib
same,Muscarinic receptor M2 (h) [% inhib],Muscarinic receptor M2,-15 % inhib
same,"LPA3 receptor (h), agonist mode [% pos ctrl]",LPA3 receptor,-3 % pos ctrl
same,GSK-3B (h) [% inhib],GSK-3B,-8 % inhib

# From publication PMC8807399, “Synthesis, Characterization, and in vivo Evaluation of a Novel Potent Autotaxin-Inhibitor” (Frontiers in Pharmacology, 2022)
